Each structure is given as a SMILES string. ≈ marks a conversion by molar mass, not a printed value.

What all share (format): functional
For one test, the system named is Moraxella catarrhalis. The test is described as follows: Antibacterial activity against Moraxella catarrhalis ATCC 25238 assessed as growth inhibition after 24 hr by two-fold serial dilution method. Conditions: ATCC 25238, 24 h.
Test [1] deals with Staphylococcus aureus. The test is described as follows: Antibacterial activity against methicillin-sensitive Staphylococcus aureus ATCC 29213 assessed as growth inhibition after 24 hr by two-fold serial dilution method. Conditions: ATCC 29213, 24 h.
Another test has as its system Klebsiella pneumoniae. Nature of the test: Antibacterial activity against clinical Klebsiella pneumoniae AB 356 assessed as growth inhibition after 24 hr by two-fold serial dilution method. Conditions: AB 356, 24 h.
Another test deals with Enterococcus faecalis. Nature of the test: Antibacterial activity against Vancomycin-resistant Enterococcus faecalis ATCC 700802 assessed as growth inhibition after 24 hr by two-fold serial dilution method. Conditions: ATCC 700802, 24 h.
The next test concerns Acinetobacter baumannii. Nature of the test: Antibacterial activity against Acinetobacter baumannii BAA 747 assessed as growth inhibition after 24 hr by two-fold serial dilution method. As to conditions: BAA 747, 24 h.
For test [2], the system named is Staphylococcus aureus. The test is described as follows: Antibacterial activity against Methicillin-resistant Staphylococcus aureus ATCC 33591 assessed as growth inhibition after 24 hr by two-fold serial dilution method. As to conditions: ATCC 33591, 24 h.

Usually MIC stands for the least concentration at which growth counts as inhibited. `O=C(O)c1cn(C2CC2)c2cc(-n3cc(CN4CCNCC4)nn3)c(F)cc2c1=O`: the minimum inhibitory concentration (MIC) was 8 µg/mL (≈ 19.4 µM) with Moraxella catarrhalis; 16 µg/mL (≈ 38.8 µM) in the test with Staphylococcus aureus [1]; 8 µg/mL (≈ 19.4 µM) in the test with Klebsiella pneumoniae; 32 µg/mL (≈ 77.6 µM) in the test with Enterococcus faecalis; 32 µg/mL (≈ 77.6 µM) in the test on Acinetobacter baumannii; 16 µg/mL (≈ 38.8 µM) in the test with Staphylococcus aureus [2].
As to `COc1ccc(NCc2cn(-c3cc4c(cc3F)c(=O)c(C(=O)O)cn4C3CC3)nn2)cc1`, the minimum inhibitory concentration (MIC) was 0.5 µg/mL (≈ 1.11 µM) in the test with Moraxella catarrhalis; 0.5 µg/mL (≈ 1.11 µM) with Staphylococcus aureus [1]; 4 µg/mL (≈ 8.9 µM) with Klebsiella pneumoniae; 2 µg/mL (≈ 4.45 µM) with Enterococcus faecalis; 8 µg/mL (≈ 17.8 µM) with Acinetobacter baumannii; 0.5 µg/mL (≈ 1.11 µM) in the test with Staphylococcus aureus [2].
For `CC(=O)NC[C@H]1CN(c2ccc(N3CCOCC3)c(F)c2)C(=O)O1` [LINEZOLID], the minimal inhibitory concentration (MIC) in the test with Moraxella catarrhalis is 4 µg/mL (≈ 11.9 µM); in the test with Klebsiella pneumoniae it was over 32 µg/mL; in the test with Acinetobacter baumannii, over 32 µg/mL.
As to `O=C(O)c1cn(C2CC2)c2cc(-n3cc(Cn4ccnc4)nn3)c(F)cc2c1=O`, the minimum inhibitory concentration (MIC) in the test with Moraxella catarrhalis was determined as 8 µg/mL (≈ 20.3 µM); with Staphylococcus aureus [1], 32 µg/mL (≈ 81.1 µM); in the test on Klebsiella pneumoniae it was 32 µg/mL (≈ 81.1 µM); in the test on Enterococcus faecalis, 32 µg/mL (≈ 81.1 µM); in the test on Acinetobacter baumannii, 32 µg/mL (≈ 81.1 µM); in the test with Staphylococcus aureus [2], 32 µg/mL (≈ 81.1 µM).
`CN(C)Cc1cn(-c2cc3c(cc2F)c(=O)c(C(=O)O)cn3C2CC2)nn1`: the MIC with Moraxella catarrhalis amounted to 1 µg/mL (≈ 2.69 µM); in the test on Staphylococcus aureus [1], 4 µg/mL (≈ 10.8 µM); in the test with Klebsiella pneumoniae, 2 µg/mL (≈ 5.39 µM); in the test with Enterococcus faecalis, 16 µg/mL (≈ 43.1 µM); with Acinetobacter baumannii it was 8 µg/mL (≈ 21.5 µM); with Staphylococcus aureus [2] it was 8 µg/mL (≈ 21.5 µM).
Regarding `O=C(O)c1cn(C2CC2)c2cc(-n3cc(CNc4ccc(Cl)cc4)nn3)c(F)cc2c1=O`, the MIC was 0.125 µg/mL (≈ 0.275 µM) in the test with Moraxella catarrhalis; 0.25 µg/mL (≈ 0.551 µM) in the test with Staphylococcus aureus [1]; 1 µg/mL (≈ 2.2 µM) with Klebsiella pneumoniae; 1 µg/mL (≈ 2.2 µM) in the test with Enterococcus faecalis; 0.5 µg/mL (≈ 1.1 µM) in the test on Acinetobacter baumannii; 0.25 µg/mL (≈ 0.551 µM) in the test on Staphylococcus aureus [2].
As for `O=C(O)c1cn(C2CC2)c2cc(-n3cc(CNCc4ccc(F)cc4)nn3)c(F)cc2c1=O`, the MIC in the test on Moraxella catarrhalis was 1 µg/mL (≈ 2.22 µM); in the test with Staphylococcus aureus [1], 2 µg/mL (≈ 4.43 µM); with Klebsiella pneumoniae, 2 µg/mL (≈ 4.43 µM); with Enterococcus faecalis it was 4 µg/mL (≈ 8.86 µM); in the test with Acinetobacter baumannii, 8 µg/mL (≈ 17.7 µM); with Staphylococcus aureus [2], 2 µg/mL (≈ 4.43 µM).
In the case of `O=C(O)c1cn(C2CC2)c2cc(-n3cc(CNC4CCCC4)nn3)c(F)cc2c1=O`, the MIC in the test on Moraxella catarrhalis worked out at 1 µg/mL (≈ 2.43 µM); in the test with Staphylococcus aureus [1], 16 µg/mL (≈ 38.9 µM); in the test with Klebsiella pneumoniae, 4 µg/mL (≈ 9.72 µM); with Enterococcus faecalis, 16 µg/mL (≈ 38.9 µM); in the test with Acinetobacter baumannii, 16 µg/mL (≈ 38.9 µM); in the test with Staphylococcus aureus [2], 16 µg/mL (≈ 38.9 µM).
Turning to `Cc1ccc(NCc2cn(-c3cc4c(cc3F)c(=O)c(C(=O)O)cn4C3CC3)nn2)cc1`, the MIC worked out at 0.125 µg/mL (≈ 0.288 µM) in the test with Moraxella catarrhalis; 0.5 µg/mL (≈ 1.15 µM) in the test with Staphylococcus aureus [1]; 4 µg/mL (≈ 9.23 µM) in the test on Klebsiella pneumoniae; 2 µg/mL (≈ 4.61 µM) with Enterococcus faecalis; 8 µg/mL (≈ 18.5 µM) in the test with Acinetobacter baumannii; 0.5 µg/mL (≈ 1.15 µM) in the test with Staphylococcus aureus [2].
Consider `O=C(O)c1cn(C2CC2)c2cc(-n3cc(CN4CCOCC4)nn3)c(F)cc2c1=O`, for which the minimum inhibitory concentration (MIC) amounted to 4 µg/mL (≈ 9.68 µM) in the test on Moraxella catarrhalis; 8 µg/mL (≈ 19.4 µM) in the test with Staphylococcus aureus [1]; 16 µg/mL (≈ 38.7 µM) in the test on Klebsiella pneumoniae; 16 µg/mL (≈ 38.7 µM) with Enterococcus faecalis; 16 µg/mL (≈ 38.7 µM) in the test on Acinetobacter baumannii; 16 µg/mL (≈ 38.7 µM) in the test with Staphylococcus aureus [2].
Take `CCCN(CCC)Cc1cn(-c2cc3c(cc2F)c(=O)c(C(=O)O)cn3C2CC2)nn1`: the minimal inhibitory concentration (MIC) stood at 2 µg/mL (≈ 4.68 µM) with Moraxella catarrhalis; 8 µg/mL (≈ 18.7 µM) in the test with Staphylococcus aureus [1]; 8 µg/mL (≈ 18.7 µM) with Klebsiella pneumoniae; 32 µg/mL (≈ 74.9 µM) in the test with Enterococcus faecalis; 16 µg/mL (≈ 37.4 µM) in the test on Acinetobacter baumannii; 32 µg/mL (≈ 74.9 µM) in the test with Staphylococcus aureus [2].
Regarding `O=C(O)c1cn(C2CC2)c2cc(-n3cc(CN4CCCC4)nn3)c(F)cc2c1=O`, the MIC was determined as 1 µg/mL (≈ 2.52 µM) with Moraxella catarrhalis; 2 µg/mL (≈ 5.03 µM) in the test on Staphylococcus aureus [1]; 2 µg/mL (≈ 5.03 µM) in the test on Klebsiella pneumoniae; 16 µg/mL (≈ 40.3 µM) in the test on Enterococcus faecalis; 8 µg/mL (≈ 20.1 µM) with Acinetobacter baumannii; 8 µg/mL (≈ 20.1 µM) in the test on Staphylococcus aureus [2].
In the case of `O=C(O)c1cn(C2CC2)c2cc(N3CCNCC3)c(F)cc2c1=O` [CIPROFLOXACIN], the MIC in the test with Moraxella catarrhalis amounted to 0.25 µg/mL (≈ 0.754 µM); in the test with Staphylococcus aureus [1], 0.5 µg/mL (≈ 1.51 µM); in the test with Enterococcus faecalis, 0.5 µg/mL (≈ 1.51 µM); with Acinetobacter baumannii it was 0.5 µg/mL (≈ 1.51 µM); in the test with Staphylococcus aureus [2] it was 0.5 µg/mL (≈ 1.51 µM).
Regarding `O=C(O)c1cn(C2CC2)c2cc(-n3cc(CNc4ccc(F)cc4)nn3)c(F)cc2c1=O`, the MIC was 0.25 µg/mL (≈ 0.572 µM) in the test on Moraxella catarrhalis; 0.25 µg/mL (≈ 0.572 µM) in the test on Staphylococcus aureus [1]; 2 µg/mL (≈ 4.57 µM) in the test on Klebsiella pneumoniae; 4 µg/mL (≈ 9.14 µM) with Enterococcus faecalis; 2 µg/mL (≈ 4.57 µM) in the test on Acinetobacter baumannii; 1 µg/mL (≈ 2.29 µM) in the test with Staphylococcus aureus [2].
As to `O=C(O)c1cn(C2CC2)c2cc(-n3cc(CN4CCCCC4)nn3)c(F)cc2c1=O`, the MIC with Moraxella catarrhalis was determined as 1 µg/mL (≈ 2.43 µM); in the test on Staphylococcus aureus [1], 4 µg/mL (≈ 9.72 µM); in the test on Klebsiella pneumoniae, 2 µg/mL (≈ 4.86 µM); with Enterococcus faecalis, 16 µg/mL (≈ 38.9 µM); in the test with Acinetobacter baumannii, 8 µg/mL (≈ 19.4 µM); in the test with Staphylococcus aureus [2], 16 µg/mL (≈ 38.9 µM).
As for `O=C(O)c1cn(C2CC2)c2cc(-n3cc(CNC4CCCCCC4)nn3)c(F)cc2c1=O`, the MIC was found to be 8 µg/mL (≈ 18.2 µM) in the test with Moraxella catarrhalis; 32 µg/mL (≈ 72.8 µM) in the test with Staphylococcus aureus [1]; 16 µg/mL (≈ 36.4 µM) in the test on Klebsiella pneumoniae; 32 µg/mL (≈ 72.8 µM) in the test on Enterococcus faecalis; 16 µg/mL (≈ 36.4 µM) with Acinetobacter baumannii; 32 µg/mL (≈ 72.8 µM) in the test on Staphylococcus aureus [2].
Turning to `O=C(O)c1cn(C2CC2)c2cc(-n3cc(CNC4CCCCC4)nn3)c(F)cc2c1=O`, the MIC came out at 1 µg/mL (≈ 2.35 µM) with Moraxella catarrhalis; 16 µg/mL (≈ 37.6 µM) in the test with Staphylococcus aureus [1]; 2 µg/mL (≈ 4.7 µM) in the test with Klebsiella pneumoniae; 32 µg/mL (≈ 75.2 µM) with Enterococcus faecalis; 8 µg/mL (≈ 18.8 µM) in the test with Acinetobacter baumannii; 32 µg/mL (≈ 75.2 µM) in the test on Staphylococcus aureus [2].
In the case of `O=C(O)c1cn(C2CC2)c2cc(-n3cc(CNCc4ccccc4)nn3)c(F)cc2c1=O`, the minimum inhibitory concentration (MIC) in the test with Moraxella catarrhalis is 1 µg/mL (≈ 2.31 µM); in the test with Staphylococcus aureus [1], 2 µg/mL (≈ 4.61 µM); with Klebsiella pneumoniae, 1 µg/mL (≈ 2.31 µM); with Enterococcus faecalis, 4 µg/mL (≈ 9.23 µM); in the test on Acinetobacter baumannii it was 8 µg/mL (≈ 18.5 µM); in the test with Staphylococcus aureus [2], 2 µg/mL (≈ 4.61 µM).
With `CC(C)NCc1cn(-c2cc3c(cc2F)c(=O)c(C(=O)O)cn3C2CC2)nn1`, the MIC is 1 µg/mL (≈ 2.59 µM) with Moraxella catarrhalis; 16 µg/mL (≈ 41.5 µM) in the test on Staphylococcus aureus [1]; 4 µg/mL (≈ 10.4 µM) in the test with Klebsiella pneumoniae; 16 µg/mL (≈ 41.5 µM) with Enterococcus faecalis; 16 µg/mL (≈ 41.5 µM) with Acinetobacter baumannii; 16 µg/mL (≈ 41.5 µM) in the test with Staphylococcus aureus [2].
For `O=C(O)c1cn(C2CC2)c2cc(-n3cc(CNC4CC4)nn3)c(F)cc2c1=O`, the minimum inhibitory concentration (MIC) in the test on Moraxella catarrhalis turned out to be 32 µg/mL (≈ 83.5 µM); in the test with Staphylococcus aureus [1] it was 16 µg/mL (≈ 41.7 µM); with Klebsiella pneumoniae, 32 µg/mL (≈ 83.5 µM); with Enterococcus faecalis, 16 µg/mL (≈ 41.7 µM); with Acinetobacter baumannii it was 32 µg/mL (≈ 83.5 µM); with Staphylococcus aureus [2] it was 16 µg/mL (≈ 41.7 µM).
Turning to `CCN(CC)Cc1cn(-c2cc3c(cc2F)c(=O)c(C(=O)O)cn3C2CC2)nn1`, the minimal inhibitory concentration (MIC) in the test with Moraxella catarrhalis came to 16 µg/mL (≈ 40.1 µM); with Staphylococcus aureus [1] it was 8 µg/mL (≈ 20 µM); in the test with Klebsiella pneumoniae it was 16 µg/mL (≈ 40.1 µM); in the test with Enterococcus faecalis, 32 µg/mL (≈ 80.1 µM); with Acinetobacter baumannii, 16 µg/mL (≈ 40.1 µM); with Staphylococcus aureus [2], 32 µg/mL (≈ 80.1 µM).
On to `O=C(O)c1cn(C2CC2)c2cc(-n3cc(CNc4ccccc4)nn3)c(F)cc2c1=O`, for which the MIC in the test with Moraxella catarrhalis is 0.125 µg/mL (≈ 0.298 µM); in the test with Staphylococcus aureus [1], 0.25 µg/mL (≈ 0.596 µM); in the test on Klebsiella pneumoniae, 1 µg/mL (≈ 2.38 µM); in the test with Enterococcus faecalis it was 2 µg/mL (≈ 4.77 µM); with Acinetobacter baumannii it was 1 µg/mL (≈ 2.38 µM); with Staphylococcus aureus [2] it was 0.5 µg/mL (≈ 1.19 µM).

For the origin of these results see ChEMBL document CHEMBL3046121, “Design and synthesis of new N-substituted amino methyl-[1,2,3] triazolyl moieties of fluoroquinolones as antibacterial agents” (2013).
